Measured values: EP0022408A1, “Derivatives of alpha-phenyl-2-pyrrolidine methanol and their salts, process for their preparation, use as medicines and compositions containing them” (ROUSSEL-UCLAF, priority 1979, dated 1981)
Counter-ions that a name gives are not always drawn.

Legend:
trachée isolée de cobaye = assay: Action on isolated guinea pig trachea (carbachol-induced contractions); assay type: cell-based; details: Cavia porcellus; product at 3.10^-6M; carbachol 0,4µ/ml; Krebs Henseleit solution, 37°C; read-out: antagonise les contractions provoquées par le carbachol
Description: 1) Action sur la trachée isolée de cobaye
On prélève les trachées de cobaye que l'on vient de sacrifier par un coup sur la nuque, les trachées sont découpées en spirale et suspendues dans une solution de Krebs Henseleit, à la température de 37°C dans laquelle barbote un mélange de 95 % d'oxygène et 5 % de gaz carbonique.
On ajoute dans la solution du carbachol comme agoniste pour provoquer des contractions.
Le produit de l'exemple 1 à la concentration de 3.10^-6M, antagonise de 100 % les contractions provoquées par le carbachol à la concentration de 0,4µ/ml.

[1] = test system: bronchospasme provoqué par l'histamine; assay: Action on histamine-induced bronchospasm in the guinea pig (Konzett and Rossler method); assay type: in vivo, cobaye; details: 1µg/kg i.v. one minute before histamine (2 à 10µg/kg i.v.)
Description: -2) Action sur le bronchospasme provoqué par l'histamine chez le cobaye
Suivant la méthode de Konzett et Rossler Arch. exp. Path. Pharmakol. 195 71 (1940), de l'histamine est administrée à une dose variant de 2 à 10µg/kg i.v. selon la sensibilité de l'animal.
L'enregistrement de la pression produite par l'air expulsé est effectué à l'aide d'un microdynamomètre Apelab.
Le produit à tester est injecté en solution dans le sérum physiologique par voie i.v. une minute avant l'histamine.
On enregistre un éventuel effet du produit seul et son action antagoniste vis-à-vis de l'agent constricteur.
L'activité antagoniste est exprimée en pourcentage de protection par rapport au bronchospasme initial dû à l'histamine.

[2] = test system: pression artérielle carotidienne; assay: Hypotensive activity in anaesthetised rats (carotid arterial pressure); assay type: in vivo, rats mâles de souche Sprague Dawley S.P.F.; details: rats anaesthetised with nembutal
Description: 3) Déterminiation de l'activité hypotensive
L'activité hypotensive a été étudiée sur des rats mâles de souche Sprague Dawley S.P.F. pesant 300 g environ et anesthésiés au nembutal (50 mg/kg par voie intraveineuse).
Le produit testé a été administré par voie intraveineuse dans la veine jugulaire.
La pression artérielle carotidienne a été mesurée avant et après administration du produit testé.
Le tableau ci-après indique les variations exprimées en pourcentage de la pression artérielle, après administration du produit testé par rapport à la pression artérielle initiale ainsi que le temps pendant lequel se manifestent ces variations.

souris = assay: Acute toxicity, intraperitoneal, mouse; assay type: in vivo; details: mortality recorded 48 hours after administration
Excerpt: 5) Etude de la toxicité aigüe
On évalue les doses létales 50 (DL 50) des produits après administration par voie intrapéritonéale chez la souris.
La mortalité est relevée quarante-huit heures après l'administration des produits.

[3] = test system: Hypothermie à la réserpine; assay: Antidepressant activity: reserpine hypothermia; assay type: in vivo, souris mâles; details: 10 mg/kg I.P; reserpine 4 mg/kg intraperitoneal; rectal temperature measured for 5 hours
Description: (§1) 6) Détermination de l'activité antidénpressive
a) Hypothermie à la réserpine
Le test est effectué sur un lot de 10 souris mâles auxquelles on administre par voie intrapéritonéale 4 mg/kg de réserpine.
La température rectale des animaux est mesurée pendant 5 heures à l'aide d'un thermomètre électrique.

[4] = test system: Hypothermie à l'apomorphine; assay: Antidepressant activity: apomorphine hypothermia; assay type: in vivo, souris mâles; details: Mus musculus, ip; intraperitoneal, before apomorphine hydrochloride 16 mg/kg intraperitoneal; rectal temperature; read-out: DE 50 (dose qui réduit de 50 % l'écart de température observé entre les témoins)
Description: as §1
b) Hypothermie à l'apomorphine
Le test est effectué sur un lot de 10 souris mâles.
On induit chez les animaux une hypothermie par injection intrapéritonéale de 16 mg/kg de chlorhydrate d'apomorphine. Le composé testé est administré par voie intrapéritonéale 30 mm avant l'injection d'apomorphine; la température rectale des animaux est mesurée 30 mm après l'injection d'apomorphine.
Des animaux témoins reçoivent soit du soluté physiologique, soit de l'apomorphine; on mesure l'écart de température entre les témoins ayant reçu le soluté physiologique, les témoins ayant reçu l'apomorphine seule et les animaux ayant reçu l'apomorphine et le composé testé.
On appelle DE 50 la dose de composé qui réduit de 50 % l'écart de température observé entre les témoins, […]

Structure (SMILES) | inhibition at 3 µM (trachée isolée de cobaye) [%] | inhibition de la broncho constriction à l'histamine (pourcentage de protection par rapport au bronchospasme initial) ([1]; listed as exemple 1) [%] | Variations % de la pression artérielle ([2]; 1 mg/kg intravenous (jugular vein), relative to initial pressure) [%] | Durée d'action ([2]; 1 mg/kg intravenous) [min] | dose létale 50 (DL 50) (souris; listed as exemple 1, 2880 min) [mg/kg] | apparition de l'hypothermie provoquée par la réserpine [3] | ED50 [4] [mg/kg] | inhibition de la broncho constriction à l'histamine (pourcentage de protection par rapport au bronchospasme initial) ([1]; listed as exemple 3) [%] | dose létale 50 (DL 50) (souris; listed as exemple 3, 2880 min) [mg/kg]
Oc1ccc(C(O)C2CCCN2)cc1O (single isomer, unassigned) [Exemple 1, Oxalate acidede 4-[α-hydroxy(pyrrolidin-2-yl)méthyl]1,2-benzène diol (isomère A)] | 100 | 52 | -35 | >65 | 250 | retarde l'apparition de l'hypothermie provoquée par la réserpine | 25 | – | –
Oc1ccc(C(O)C2CCCN2)cc1O (single isomer, unassigned) [Exemple 3, Chlorhydrate du 4-/α-hydroxy(pyrrolidin-2-yl) méthyl/1,2-benzène diol (isomère B)] | – | – | – | – | – | – | – | 17 | 40
